Laboratory results reported in patent US20120015953A1, “METHODS AND COMPOSITIONS FOR THE TREATMENT OF ALLERGY” (priority 2010, published 2012).

Key:
[1] = tested on: tissue eosinophil peroxidase (EPO); experiment: late phase allergic response, conjunctival tissue eosinophil peroxidase (EPO) 24 h after challenge; type: in vivo, guinea pig; conditions: for inhibition of late phase allergic response: compound alone, EPO 24 hours after challenge (FIGS. 2, 5); for inhibition of late phase response with concomitant olopatadine: concomitant dosing with 0.2% olopatadine (FIGS. 2, 5)
Protocol: (§1) H1 and H4 antagonists were evaluated using an in vivo assay to determine the effect of the H4 antagonist on a co-administered H1 antagonist. Male Hartley VAF outbred guinea pigs were passively sensitized to ovalbumin by a single OD subconjunctival injection of undiluted guinea pig anti-ovalbumin antiserum 24 hours before OD topical challenge with 500 μg ovalbumin in saline. Control animals were injected with saline only and challenged with ovalbumin. To determine acute phase drug efficacy, 30 min after challenge animals were clinically scored by a masked observer for severity of signs of conjunctivitis based on a standard scale.
(§2) Test compounds were administered topically 1 hour prior to challenge. Twenty-four hours after challenge, animals were euthanized and conjunctivae were harvested for determination of tissue eosinophil peroxidase (EPO) concentration as a marker of allergic inflammation and late phase effects. Homogenates of freshly collected tissues were prepared by shaking the tissues in 2 mL round-bottom tubes containing 0.5 mL of homogenization buffer (50 mM Tris HCl, pH 8.0, 6 mM KBr) and one 5-mm stainless steel bead on a Qiagen TissueLyser at 30 Hz for 5 min. Homogenates were frozen and thawed once, then centrifuged at 10,000 rpm for 5 min. EPO activity in supernatants was measured by reacting diluted homogenates with a solution of 6 mM o-phenylenediamine substrate and 8.8 mM H2O2 in homogenization buffer for 3 min. The reaction was stopped with 4M H2SO4 and absorbances were measured at […] on a spectrophotometry plate reader. Total EPO in samples was calculated from a standard curve of recombinant human EPO in each assay. EPO activity was normalized to total protein concentration (Pierce BCA assay) in supernatants. Background EPO activity was determined from the unsensitized, antigen-challenged control group. Percent inhibition was calculated from the sensitized, antigen-challenged, vehicle-treated control group in each experiment. Ovalbumin-injected animals dosed topically with 0.1% w/v dexamethasone (dex) served as positive control. Groups were compared by ANOVA with Dunnett's or Tukey's post-hoc tests where appropriate with significance assigned at the 95% confidence level.

[2] = tested on: passively sensitized guinea pigs; experiment: acute phase clinical score of conjunctivitis, passively sensitized guinea pigs challenged with ovalbumin; type: in vivo, guinea pig; conditions: for effect on olopatadine's inhibition of the acute clinical score: H4 antagonist topical once daily, 0.2% olopatadine 5 minutes later, antigen challenge 60 minutes after dose, scored 30 min after challenge (FIGS. 1, 4); for effect on olopatadine's acute phase effects under different dosing regimens: administered before, after, or in the same drop as 0.2% olopatadine (FIGS. 3, 6); for effect on acute phase clinical score on their own: compound alone, topical, 1 hour prior to challenge
Protocol: as §1, §2

SMILES: CN1CCN(c2nc3ccc(C(F)(F)F)cc3n3cnnc23)CC1 [Compound 1, 4-(4-methylpiperazin-1-yl)-8-(trifluoromethyl)-[1,2,4]triazolo[4,3-a]quinoxaline]
- inhibition of late phase allergic response [1]: very good inhibitors of late phase allergic response
- inhibition of late phase response with concomitant olopatadine [1]: slight increase in the inhibition of late phase response
- effect on olopatadine's inhibition of the acute clinical score [2]: dose dependent effect on the inhibition of the acute clinical score relative to olopatadine alone
- effect on olopatadine's acute phase effects under different dosing regimens [2]: reduction of olopatadine's acute phase effects and dose dependency
- effect on acute phase clinical score on their own [2]: Neither Compound 1 nor Compound 2 demonstrate any effect on acute phase clinical score on their own

SMILES: Clc1ccc2nc(N3CCNCC3)c3nnnn3c2c1 [Compound 2, 8-chloro-4-(piperazin-1-yl)tetrazolo[1,5-a]quinoxaline]
- inhibition of late phase allergic response [1]: very good inhibitors of late phase allergic response
- inhibition of late phase response with concomitant olopatadine [1]: slight increase in the inhibition of late phase response
- effect on olopatadine's inhibition of the acute clinical score [2]: does not show suppression of olopatadine's acute phase effects
- effect on olopatadine's acute phase effects under different dosing regimens [2]: These effects on acute phase response are not seen
- effect on acute phase clinical score on their own [2]: Neither Compound 1 nor Compound 2 demonstrate any effect on acute phase clinical score on their own
